Like-named read-outs stand apart in the source and are kept apart here.
Legend:
[1] = target: TGase (Cavia porcellus, UniProt P08587); assay type: biochemical; conditions: level with DMSO control designated as 100
[2] = test system: IICR (IP3 induced calcium release) in CHO cells; assay: Assay of IICR (IP3 induced calcium release)-inhibiting action; assay type: cell-based, Chinese hamster; conditions: CHO cells, 10 μM ATP
How it was run: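 Inhibition (%) of the intracellular calcium increase triggered by 10 μM ATP, measured in CHO cells in BSS with calcium. Compound given 1 min after the buffer exchange and 2 min before ATP; values reported per compound concentration.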

[3] = test system: SOCE (store operated calcium entry) in CHO cells; assay: Assay of SOCE (store operated calcium entry)-inhibiting action; assay type: cell-based, Chinese hamster; conditions: CHO cells, thapsigargin
How it was run: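 CHO cells in calcium-free BSS received compound, then 1 μM thapsigargin 2 min later to deplete stores; after 9 min, 2 mM calcium chloride (final) added. Percent inhibition of the rise in intracellular calcium determined at various compound concentrations.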

Compound: O=C(CCNCCCCNCCC(=O)c1ccc(Br)s1)c1ccc(Br)s1 [Example 356]
- TG level ([1]; test compound 3 μmol): 93
- TG level ([1]; test compound 10 μmol): 22.6
- TG level ([1]; test compound 30 μmol): 3.6
- IICR level (percentage of inhibition) ([2]; test compound 10 μmol): 0%
- IICR level (percentage of inhibition) ([2]; test compound 30 μmol): 0%
- IICR level (percentage of inhibition) ([2]; test compound 100 μmol): 10%
- SOCE level (percentage of inhibition) ([3]; test compound 10 μmol): 0%
- SOCE level (percentage of inhibition) ([3]; test compound 30 μmol): 3%
- SOCE level (percentage of inhibition) ([3]; test compound 100 μmol): 10%

Compound: O=C(CCNCCSSCCNCCC(=O)c1cccs1)c1cccs1 [Example 369]
- TG level ([1]; test compound 3 μmol): 95.1
- TG level ([1]; test compound 30 μmol): −64.9
- IICR level (percentage of inhibition) ([2]; test compound 10 μmol): 0%
- IICR level (percentage of inhibition) ([2]; test compound 30 μmol): 0%
- IICR level (percentage of inhibition) ([2]; test compound 100 μmol): 70%
- SOCE level (percentage of inhibition) ([3]; test compound 10 μmol): 20%
- SOCE level (percentage of inhibition) ([3]; test compound 30 μmol): 40%
- SOCE level (percentage of inhibition) ([3]; test compound 100 μmol): 50%

Compound: O=C(CCNCCSSCCNCCC(=O)c1ccc2ccccc2c1)c1ccc2ccccc2c1 [Example 370]
- TG level ([1]; test compound 3 μmol): 36
- TG level ([1]; test compound 30 μmol): 1.6
- IICR level (percentage of inhibition) ([2]; test compound 10 μmol): 0%
- IICR level (percentage of inhibition) ([2]; test compound 30 μmol): 0%
- IICR level (percentage of inhibition) ([2]; test compound 100 μmol): 29%
- SOCE level (percentage of inhibition) ([3]; test compound 10 μmol): 0%
- SOCE level (percentage of inhibition) ([3]; test compound 30 μmol): 0%
- SOCE level (percentage of inhibition) ([3]; test compound 100 μmol): 3%

Compound: O=C(CCNCCSSCCNCCC(=O)c1ccco1)c1ccco1 [Example 372]
- TG level ([1]; test compound 3 μmol): 13
- TG level ([1]; test compound 30 μmol): −1.5
- IICR level (percentage of inhibition) ([2]; test compound 10 μmol): 0%
- IICR level (percentage of inhibition) ([2]; test compound 30 μmol): 54%
- IICR level (percentage of inhibition) ([2]; test compound 100 μmol): 58%
- SOCE level (percentage of inhibition) ([3]; test compound 10 μmol): 0%
- SOCE level (percentage of inhibition) ([3]; test compound 30 μmol): 0%
- SOCE level (percentage of inhibition) ([3]; test compound 100 μmol): 15%

Compound: O=C(CCNCCSSCCNCCC(=O)c1ccsc1)c1ccsc1 [Example 380]
- TG level ([1]; test compound 3 μmol): 25
- TG level ([1]; test compound 30 μmol): 4.2
- IICR level (percentage of inhibition) ([2]; test compound 10 μmol): 10%
- IICR level (percentage of inhibition) ([2]; test compound 30 μmol): 76%
- IICR level (percentage of inhibition) ([2]; test compound 100 μmol): 81%
- SOCE level (percentage of inhibition) ([3]; test compound 10 μmol): 4%
- SOCE level (percentage of inhibition) ([3]; test compound 30 μmol): 31%
- SOCE level (percentage of inhibition) ([3]; test compound 100 μmol): 70%

Compound: N,N-bis(2-(4-bromobenzoyl)ethyl)cystinemethylester [Example 392]
- TG level ([1]; test compound 3 μmol): 25
- TG level ([1]; test compound 10 μmol): 3.7
- TG level ([1]; test compound 30 μmol): 2.3
- IICR level (percentage of inhibition) ([2]; test compound 10 μmol): 58%
- IICR level (percentage of inhibition) ([2]; test compound 30 μmol): 61%
- IICR level (percentage of inhibition) ([2]; test compound 100 μmol): 76%
- SOCE level (percentage of inhibition) ([3]; test compound 10 μmol): 20%
- SOCE level (percentage of inhibition) ([3]; test compound 30 μmol): 40%
- SOCE level (percentage of inhibition) ([3]; test compound 100 μmol): 50%

Compound: N,N-bis(2-(4-pyridinoyl)ethyl)cystinemethylester [Example 393]
- TG level ([1]; test compound 3 μmol): 54
- TG level ([1]; test compound 10 μmol): 16
- TG level ([1]; test compound 30 μmol): 3.5
- IICR level (percentage of inhibition) ([2]; test compound 10 μmol): 44%
- IICR level (percentage of inhibition) ([2]; test compound 30 μmol): 42%
- IICR level (percentage of inhibition) ([2]; test compound 100 μmol): 21%
- SOCE level (percentage of inhibition) ([3]; test compound 10 μmol): 20%
- SOCE level (percentage of inhibition) ([3]; test compound 30 μmol): 40%
- SOCE level (percentage of inhibition) ([3]; test compound 100 μmol): 50%

Compound: N,N-bis(2-(5-bromo-2-thiophenoyl)ethyl)cystinemethylester [Example 386]
- TG level ([1]; test compound 3 μmol): 4.6
- TG level ([1]; test compound 10 μmol): 2.9
- TG level ([1]; test compound 30 μmol): 14
- IICR level (percentage of inhibition) ([2]; test compound 10 μmol): 44%
- IICR level (percentage of inhibition) ([2]; test compound 30 μmol): 72%
- IICR level (percentage of inhibition) ([2]; test compound 100 μmol): 77%
- SOCE level (percentage of inhibition) ([3]; test compound 10 μmol): 20%
- SOCE level (percentage of inhibition) ([3]; test compound 30 μmol): 40%
- SOCE level (percentage of inhibition) ([3]; test compound 100 μmol): 50%

Compound: N,N-bis(2-naphthoylethyl)cystinemethylester [Example 391]
- TG level ([1]; test compound 3 μmol): 33
- TG level ([1]; test compound 10 μmol): 6.4
- TG level ([1]; test compound 30 μmol): 29
- IICR level (percentage of inhibition) ([2]; test compound 10 μmol): 6%
- IICR level (percentage of inhibition) ([2]; test compound 30 μmol): 37%
- IICR level (percentage of inhibition) ([2]; test compound 100 μmol): 41%
- SOCE level (percentage of inhibition) ([3]; test compound 10 μmol): 20%
- SOCE level (percentage of inhibition) ([3]; test compound 30 μmol): 40%
- SOCE level (percentage of inhibition) ([3]; test compound 100 μmol): 50%

Compound: N,N-bis(2-thiophenoylethyl)cystinemethylester [Example 389]
- TG level ([1]; test compound 3 μmol): 9.7
- TG level ([1]; test compound 10 μmol): 2.7
- TG level ([1]; test compound 30 μmol): −3.8
- IICR level (percentage of inhibition) ([2]; test compound 10 μmol): 22%
- IICR level (percentage of inhibition) ([2]; test compound 30 μmol): 45%
- IICR level (percentage of inhibition) ([2]; test compound 100 μmol): 54%
- SOCE level (percentage of inhibition) ([3]; test compound 10 μmol): 20%
- SOCE level (percentage of inhibition) ([3]; test compound 30 μmol): 40%
- SOCE level (percentage of inhibition) ([3]; test compound 100 μmol): 50%

Source: US8937091B2 (Japan Science and Technology Agency, priority 2009, dated 2015)
